Here are results for four compounds from PMC8116058, “De novo macrocyclic peptides dissect energy coupling of a heterodimeric ABC transporter by multimode allosteric inhibition” (eLife, 2021).

One assay deals with TmrAB in liposomes. Kind of assay: ATP hydrolysis assay. The class given is biochemical, Thermus thermophilus. Conditions: TmrAB in liposomes 100 nM; ATP 2 mM; CP^F 1 µM; 10 min 45°C; without CP 1.49, autohydrolysis 0.62. From the text:
In order to investigate the functional impact of CPs, we examined the effect of the CPs on ATP hydrolysis and substrate transport of TmrAB (Figure 3A). We reconstituted TmrAB in liposomes and first assayed the ATPase activity. […] We next set out to investigate peptide transport by TmrAB using a filter-based transport assay. To investigate whether CPs are recognized as substrates by TmrAB, we added fluorescein-labeled CP^Fs and examined ATP-dependent translocation. In contrast to the linear substrate peptide C4F, none of the CP^Fs were transported by TmrAB (Figure 3C). Next, we examined ATP-dependent transport of C4F peptides in the presence and absence of the different CPs.
Figure 3. CP^Fs are potent inhibitors of ATP turnover and substrate transport. (A) Experimental scheme of ATP hydrolysis and peptide transport by TmrAB. (B) CP^Fs inhibit ATP hydrolysis. TmrAB in liposomes (100 nM) was incubated with ATP (2 mM, traced with [γ^32P]-ATP), and MgCl2 (5 mM) in the presence and absence of CP^Fs (1 µM) for 10 min at 45°C. Autohydrolysis was determined in the absence of TmrAB, and background turnover was conducted in the presence of EDTA (10 mM). Release of [γ^32P] was quantified by thin layer chromatography. (C) CP^Fs are not transported by TmrAB. TmrAB (0.4 µM) reconstituted in liposomes was incubated with C4F peptide (3 µM) or CP^Fs (1 µM) in the presence of ATP/ADP (3 mM) and MgCl2 (5 mM) for 5 min at 45°C. Since CP^Fs were dissolved in maximal 0.5% (v/v) of DMSO, C4F plus 0.5% DMSO served as control. Proteoliposomes were washed on filter plates, and transported peptides were quantified at λex/em = 485/520 nm. (D) Inhibition of substrate translocation. TmrAB in liposomes (0.4 µM) were incubated with C4F peptide (3 µM), ATP/ADP (3 mM), and MgCl2 (5 mM) in the presence and absence of CP^Fs (1 µM) for 15 min at 45°C. Transported peptides were quantified as described in (C). In (B–C), mean values ± SD (n = 3) are shown. Figure 3—source data 1. Source data for Figure 3.
TmrAB reconstituted in liposomes (100 nM) were incubated with ATP (2 mM) traced with [γ^32P]-ATP (Hartmann Analytic), ouabain (1 mM), NaN3 (5 mM), EGTA (50 µM), MgCl2 (3 mM), and CP^Fs (1 µM) for 10 min at 45°C. Autohydrolysis and background hydrolysis were examined in the absence of proteoliposomes or the presence of EDTA (10 mM). Samples were spotted onto polyethyleneimine cellulose plates (Merck Millipore), and thin-layer chromatography was performed with 0.8 M LiCl-acetic acid pH 3.2. Plates were developed overnight on Exposure Cassette-K (Bio-Rad) and evaluated on Personal Molecular Imager System (Bio-Rad). Data were recorded in triplicates and the mean values ± SD (n = 3) are shown.

In another assay the test system is TmrAB. Put plainly: Competition of C4F peptide binding by CP^Bs (fluorescence anisotropy). On the set-up: species or system Thermus thermophilus. Particulars: C4F 50 nM + TmrAB 4 µM + competitor (CP^B 6 µM or C4^ATTO655 10 µM). The source says:
To elucidate the mechanistic basis for the inhibition of ATP hydrolysis and substrate transport, we investigated the effects of CPs on substrate binding. In the first approach, fluorescent CP^Fs were used as reporters in fluorescence polarization. […] In addition, we examined the impact of CP^Bs on ATP binding to TmrAB by scintillation proximity assays (SPA) (Figure 4C). […] Taken together, CPs are high-affinity allosteric inhibitors of TmrAB that leave ATP binding and substrate interaction largely unaffected, while impairing ATP hydrolysis and substrate translocation across the membrane.
Figure 4. […] (A) CP^Fs binding TmrAB is not affected by substrate peptide binding. […] For competition, C4^ATTO655 peptide (2 µM) or R9LQK peptide (200 µM) were added. (B) Binding of C4F peptide is not affected by CP^Bs. C4F peptides (50 nM) were mixed with TmrAB (4 µM), and fluorescence anisotropy was monitored as described in (A). For competition, C4^ATTO655 (10 µM) or CP^Bs (6 µM) were added. […] TmrAB (0.2 µM) were immobilized on SPA beads and incubated with ATP (3 μM, traced with ^3H-ATP) in the presence and absence of CP^Bs (1 µM each) for 30 min on ice. ATP binding was monitored by SPA. Background values were determined after releasing TmrAB complexes from the beads by adding imidazole (200 mM). The background signal in the absence of CP^Bs was set to 0 cpm. […] As this is an equilibrium experiment, this can be rationalized by the fact that CP13 stabilizes the ATP-bound OF conformer. Figure 4—source data 1. Source data for Figure 4.
To determine equilibrium binding constants, CP^Fs (50 nM) were incubated with increasing concentrations of TmrAB-containing or empty liposomes. To probe the conformational selectivity, CP^Fs (50 nM) were mixed with detergent-solubilized IF TmrAB or OF TmrA^EQB. Before, OF TmrA^EQB was nucleotide-trapped by incubation with ATP (1 mM) and MgCl2 (3 mM) in the absence of CP^Fs for 5 min at 45°C. […] For peptide competition studies, RRYC^fluoresceinKSTEL (C4F, 50 nM) were incubated with detergent-solubilized TmrAB (4 µM), CP^Bs (6 µM), or C4^ATTO655 (10 µM). […] Fluorescence anisotropy was analyzed at λex/em of 485/520 nm using a microplate reader (CLARIOstar, BMG LABTECH). Fluorescence anisotropy was calculated using:(1) r=I||−I⊥/I||+2⋅I⊥ with I||: parallel intensity and I⊥: perpendicular intensity. Binding of CP^Fs were fitted by a one-site binding model (Langmuir 1:1) using:(2) Y=Bmax∙[L]/KD+[L] with Y: binding, Bmax: maximal binding, KD: equilibrium dissociation constant, and [L]: ligand concentration. Data represent mean ± SD from three experiments.
(Polarisation of emitted light reports the rotation of a fluorescent probe.)

Positions of bridges follow the written chain, without caps; N, C: chain ends. Non-standard residues stand in square brackets, D forms with d. Residues, ends and D or L forms follow the SMILES beside them. *: point of attachment. 5FAM = O=C1OC2(c3ccc(O)cc3Oc3cc(O)ccc32)c2ccc(C(=O)*)cc21; βAla = NCCC(=O)O

Regarding `CC[C@H](C)[C@@H]1NC(=O)[C@H]([C@@H](C)O)NC(=O)[C@H](CC(C)C)NC(=O)[C@H](Cc2c[nH]c3ccccc23)NC(=O)[C@H](Cc2ccccc2)NC(=O)[C@H](CC(N)=O)NC(=O)[C@H](CCC(=O)O)NC(=O)[C@H](CC(C)C)NC(=O)[C@H](CS)NC(=O)[C@H](Cc2c[nH]cn2)NC(=O)[C@H](CO)NC(=O)[C@@H](Cc2ccc(O)cc2)NC(=O)CSC[C@@H](C(=O)NCC(=O)N[C@@H](CO)C(=O)NCCC(=O)NCCC(=O)N[C@@H](CCCNC(=N)N)C(=O)N[C@@H](CCCCNC(=O)c2ccc3c(c2)C(=O)OC32c3ccc(O)cc3Oc3cc(O)ccc32)C(N)=O)NC(=O)[C@H](CC(C)C)NC1=O` [CP6] ({CH2CO}-[dY]SHCLENFWLTILCGS[βAla][βAla]RK(5FAM)-NH2; thioether N-14), the ATP hydrolysis in the assay on TmrAB in liposomes was 0.54 mmol Pi (g*min)^-1. Further, the “Bound C4F peptide, fluorescence anisotropy” value (“Bound C4F peptide” below) in the assay on TmrAB was found to be 0.124.

Consider `CC(C)C[C@@H]1NC(=O)[C@H](Cc2ccccc2)NC(=O)CNC(=O)[C@H](CO)NC(=O)[C@H](Cc2ccccc2)NC(=O)[C@H](CC(=O)O)NC(=O)[C@@H]2CCCN2C(=O)[C@H]([C@@H](C)O)NC(=O)[C@@H](Cc2ccc(O)cc2)NC(=O)CSC[C@@H](C(=O)NCC(=O)N[C@@H](CO)C(=O)NCCC(=O)NCCC(=O)N[C@@H](CCCNC(=N)N)C(=O)N[C@@H](CCCCNC(=O)c2ccc3c(c2)C(=O)OC32c3ccc(O)cc3Oc3cc(O)ccc32)C(N)=O)NC(=O)[C@H](C)NC(=O)[C@H](CC(N)=O)NC(=O)[C@H](CCCNC(=N)N)NC(=O)[C@H](CC(C)C)NC(=O)[C@H](Cc2ccccc2)NC(=O)[C@H](C)NC1=O` [CP12] ({CH2CO}-[dY]TPDFSGFLAFLRNACGS[βAla][βAla]RK(5FAM)-NH2; thioether N-16), for which the ATP hydrolysis in the assay on TmrAB in liposomes was 0.37 mmol Pi (g*min)^-1. Besides, in the assay with TmrAB, the “Bound C4F peptide” value is on record as 0.128.

In the case of `CC[C@H](C)[C@@H]1NC(=O)[C@H](Cc2c[nH]c3ccccc23)NC(=O)[C@H](CC(N)=O)NC(=O)[C@H](C)NC(=O)[C@H](CO)NC(=O)[C@@H]2CCCN2C(=O)[C@H](CC(=O)O)NC(=O)[C@@H](Cc2ccc(O)cc2)NC(=O)CSC[C@@H](C(=O)NCC(=O)N[C@@H](CO)C(=O)NCCC(=O)NCCC(=O)N[C@@H](CCCNC(=N)N)C(=O)N[C@@H](CCCCNC(=O)c2ccc3c(c2)C(=O)OC32c3ccc(O)cc3Oc3cc(O)ccc32)C(N)=O)NC(=O)[C@H]([C@@H](C)O)NC(=O)[C@H](CC(C)C)NC(=O)[C@H](CC(C)C)NC(=O)[C@H](C(C)C)NC(=O)[C@H](CC(C)C)NC1=O` [CP13] ({CH2CO}-[dY]DPSANWILVLLTCGS[βAla][βAla]RK(5FAM)-NH2; thioether N-14; C-terminus assumed), in the assay with TmrAB in liposomes, the ATP hydrolysis is recorded as 0.39 mmol Pi (g*min)^-1. Besides, the “Bound C4F peptide” value in the assay on TmrAB stood at 0.141.

Turning to `CC(C)[C@@H]1NC(=O)[C@H](Cc2ccccc2)NC(=O)[C@@H]2CCCN2C(=O)[C@H](CC(N)=O)NC(=O)[C@H](Cc2c[nH]c3ccccc23)NC(=O)[C@H](C(C)C)NC(=O)[C@H](Cc2ccc(O)cc2)NC(=O)[C@H](Cc2ccccc2)NC(=O)[C@@H](Cc2ccc(O)cc2)NC(=O)CSC[C@@H](C(=O)NCC(=O)N[C@@H](CO)C(=O)NCCC(=O)NCCC(=O)N[C@@H](CCCNC(=N)N)C(=O)N[C@@H](CCCCNC(=O)c2ccc3c(c2)C(=O)OC32c3ccc(O)cc3Oc3cc(O)ccc32)C(N)=O)NC(=O)[C@H](CCCCN)NC(=O)[C@H](Cc2ccccc2)NC1=O` [CP14] ({CH2CO}-[dY]FYVWNPFVFKCGS[βAla][βAla]RK(5FAM)-NH2; thioether N-12; C-terminus assumed), the ATP hydrolysis with TmrAB in liposomes is reported as 0.39 mmol Pi (g*min)^-1. Besides, the “Bound C4F peptide” value in the assay on TmrAB was found to be 0.136.
